Results reported in the supplement of paper PMC10307832.

Assays:
Test in all cases: relative viability (nuclei count vs DMSO), 5 days (fraction); higher = more cells survive
[1] = system: ABC-1
Method in brief: (§1)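 Relative viability divides the nuclei count in treated wells by that in vehicle wells. Lung cancer cell lines were seeded in 1536-well plates, dosed by pin tool the next day, and fixed and stained after 5 days in one step with final 0.05% Triton X-100, 1% formaldehyde and 1 ug/ml Hoechst. Dosing was a single drug or a fixed anchor-drug dose plus five library-drug doses (not always all listed) in √10 steps, and values are medians of duplicate plates imaged at 4×.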

[2] = system: NCI-H838
Method in brief: as §1

[3] = system: NCI-H460
Method in brief: as §1

[4] = system: PC-14
Method in brief: as §1

[5] = system: UMC-11
Method in brief: as §1

[6] = system: HCC-15
Method in brief: as §1

[7] = system: NCI-H2085
Method in brief: as §1

[8] = system: NCI-H1651
Method in brief: as §1

[9] = system: NCI-H2009
Method in brief: as §1

[10] = system: NCI-H1993
Method in brief: as §1

[11] = system: NCI-H358
Method in brief: as §1

[12] = system: NCI-H1915
Method in brief: as §1

[13] = system: EPLC-272H
Method in brief: as §1

[14] = system: SW 1573
Method in brief: as §1

[15] = system: LC-2-ad
Method in brief: as §1

[16] = system: NCI-H2126
Method in brief: as §1

[17] = system: HARA
Method in brief: as §1

[18] = system: NCI-H650
Method in brief: as §1

[19] = system: LU99A
Method in brief: as §1

[20] = system: NCI-H522
Method in brief: as §1

[21] = system: NCI-H2347
Method in brief: as §1

[22] = system: COR-L23
Method in brief: as §1

[23] = system: NCI-H2342
Method in brief: as §1

Compound: COc1cc(N2CCC(C(N)=O)CC2)ccc1Nc1nc(N)c(Cl)c(Nc2ccccc2S(=O)(=O)C(C)C)n1 [HG-5-88-01] + CCNC(=O)c1noc(-c2cc(C(C)C)c(O)cc2O)c1-c1ccc(CN2CCOCC2)cc1 [Luminespib] (partner 0.01 µM)
- relative viability ([1]; first compound 0.04 µM): 0.406
- relative viability ([1]; first compound 0.1265 µM): 0.86
- relative viability ([1]; first compound 0.4 µM): 0.345
- relative viability ([1]; first compound 1.265 µM): 0.296
- relative viability ([1]; first compound 4 µM): 0.587
- relative viability ([2]; first compound 0.04 µM): 0.322
- relative viability ([2]; first compound 0.1265 µM): 0.288
- relative viability ([2]; first compound 0.4 µM): 0.212
- relative viability ([2]; first compound 1.265 µM): 0.276
- relative viability ([2]; first compound 4 µM): 0.205
- relative viability ([3]; first compound 0.04 µM): 0.0373
- relative viability ([3]; first compound 0.1265 µM): 0.0308
- relative viability ([3]; first compound 0.4 µM): 0.0242
- relative viability ([3]; first compound 1.265 µM): 0.0363
- relative viability ([3]; first compound 4 µM): 0.0375
- relative viability ([4]; first compound 0.04 µM): 0.173
- relative viability ([4]; first compound 0.1265 µM): 0.209
- relative viability ([4]; first compound 0.4 µM): 0.181
- relative viability ([4]; first compound 1.265 µM): 0.131
- relative viability ([4]; first compound 4 µM): 0.194
- relative viability ([5]; first compound 0.04 µM): 0.914
- relative viability ([5]; first compound 0.1265 µM): 1.08
- relative viability ([5]; first compound 1.265 µM): 0.983
- relative viability ([5]; first compound 4 µM): 1.12
- relative viability ([6]; first compound 0.04 µM): 0.386
- relative viability ([6]; first compound 0.1265 µM): 0.2
- relative viability ([6]; first compound 0.4 µM): 0.553
- relative viability ([6]; first compound 1.265 µM): 0.468
- relative viability ([6]; first compound 4 µM): 0.41
- relative viability ([7]; first compound 0.04 µM): 0.405
- relative viability ([7]; first compound 0.1265 µM): 0.453
- relative viability ([7]; first compound 0.4 µM): 0.407
- relative viability ([7]; first compound 1.265 µM): 0.434
- relative viability ([7]; first compound 4 µM): 0.464
- relative viability ([8]; first compound 0.04 µM): 0.87
- relative viability ([8]; first compound 0.1265 µM): 0.976
- relative viability ([8]; first compound 0.4 µM): 1.17
- relative viability ([8]; first compound 1.265 µM): 0.771
- relative viability ([8]; first compound 4 µM): 0.934
- relative viability ([9]; first compound 0.04 µM): 1.11
- relative viability ([9]; first compound 0.1265 µM): 1.06
- relative viability ([9]; first compound 0.4 µM): 0.954
- relative viability ([9]; first compound 1.265 µM): 0.994
- relative viability ([9]; first compound 4 µM): 1.12
- relative viability ([10]; first compound 0.04 µM): 0.957
- relative viability ([10]; first compound 0.1265 µM): 0.826
- relative viability ([10]; first compound 0.4 µM): 0.83
- relative viability ([10]; first compound 1.265 µM): 0.648
- relative viability ([10]; first compound 4 µM): 0.578
- relative viability ([11]; first compound 0.04 µM): 0.335
- relative viability ([11]; first compound 0.1265 µM): 0.256
- relative viability ([11]; first compound 0.4 µM): 0.422
- relative viability ([11]; first compound 1.265 µM): 0.099
- relative viability ([11]; first compound 4 µM): 0.148
- relative viability ([12]; first compound 0.04 µM): 0.774
- relative viability ([12]; first compound 0.1265 µM): 0.755
- relative viability ([12]; first compound 0.4 µM): 0.792
- relative viability ([12]; first compound 1.265 µM): 1.01
- relative viability ([12]; first compound 4 µM): 0.786
- relative viability ([13]; first compound 0.04 µM): 0.384
- relative viability ([13]; first compound 0.1265 µM): 0.269
- relative viability ([13]; first compound 0.4 µM): 0.347
- relative viability ([13]; first compound 1.265 µM): 0.181
- relative viability ([13]; first compound 4 µM): 0.204
- relative viability ([14]; first compound 0.04 µM): 0.261
- relative viability ([14]; first compound 0.1265 µM): 0.213
- relative viability ([14]; first compound 0.4 µM): 0.194
- relative viability ([14]; first compound 1.265 µM): 0.205
- relative viability ([14]; first compound 4 µM): 0.242
- relative viability ([15]; first compound 0.04 µM): 1.05
- relative viability ([15]; first compound 0.1265 µM): 1.17
- relative viability ([15]; first compound 0.4 µM): 1.13
- relative viability ([15]; first compound 1.265 µM): 0.812
- relative viability ([15]; first compound 4 µM): 1.06
- relative viability ([16]; first compound 0.04 µM): 0.836
- relative viability ([16]; first compound 0.1265 µM): 0.975
- relative viability ([16]; first compound 0.4 µM): 0.861
- relative viability ([16]; first compound 1.265 µM): 0.699
- relative viability ([16]; first compound 4 µM): 0.57
- relative viability ([17]; first compound 0.04 µM): 0.777
- relative viability ([17]; first compound 0.1265 µM): 0.813
- relative viability ([17]; first compound 0.4 µM): 0.565
- relative viability ([17]; first compound 1.265 µM): 0.5
- relative viability ([17]; first compound 4 µM): 0.421
- relative viability ([18]; first compound 0.04 µM): 0.87
- relative viability ([18]; first compound 0.1265 µM): 0.802
- relative viability ([18]; first compound 0.4 µM): 0.816
- relative viability ([18]; first compound 1.265 µM): 0.63
- relative viability ([18]; first compound 4 µM): 0.772
- relative viability ([19]; first compound 0.04 µM): 0.214
- relative viability ([19]; first compound 0.1265 µM): 0.217
- relative viability ([19]; first compound 0.4 µM): 0.288
- relative viability ([19]; first compound 1.265 µM): 0.275
- relative viability ([19]; first compound 4 µM): 0.252
- relative viability ([20]; first compound 0.04 µM): 1.06
- relative viability ([20]; first compound 0.1265 µM): 1.16
- relative viability ([20]; first compound 0.4 µM): 1.05
- relative viability ([20]; first compound 1.265 µM): 0.852
- relative viability ([20]; first compound 4 µM): 1.21
- relative viability ([21]; first compound 0.04 µM): 0.282
- relative viability ([21]; first compound 0.1265 µM): 0.467
- relative viability ([21]; first compound 0.4 µM): 0.32
- relative viability ([21]; first compound 1.265 µM): 0.398
- relative viability ([21]; first compound 4 µM): 0.339
- relative viability ([22]; first compound 0.04 µM): 0.69
- relative viability ([22]; first compound 0.1265 µM): 0.575
- relative viability ([22]; first compound 0.4 µM): 0.589
- relative viability ([22]; first compound 1.265 µM): 0.614
- relative viability ([22]; first compound 4 µM): 0.557
- relative viability ([23]; first compound 0.04 µM): 0.672
- relative viability ([23]; first compound 0.1265 µM): 0.739
- relative viability ([23]; first compound 0.4 µM): 0.688
- relative viability ([23]; first compound 1.265 µM): 0.701
- relative viability ([23]; first compound 4 µM): 0.845
